Laboratory results: PubChem BioAssay AID1919014 (Molecular Pharmacology Branch, DTP, NCI, 2023)
pIC50: −log10 of the molar value.

Test system: NCI-H1341 complex spheroids, percent test/control
Experiment: Anticancer human tumor NCI-H1341 cell line growth inhibition [AhR];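 also: spheroids exposed to agents for seven days before readout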
Details: for pIC50: curve of first compound; for viability, T/C: stronger effect = lower value
Procedure, shortened: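 Agents were dosed in half-log steps down from roughly clinical Cmax, or from 10 microM where Cmax was unknown, alone and with AhR antagonists. Read-out: percent test/control growth of tumor spheroids containing HUVEC and MSC stromal cells.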

[1] = second compound 0.1 µM, first compound 0.0316 µM
[2] = second compound 0.1 µM, first compound 0.1 µM
[3] = second compound 0.1 µM, first compound 0.316 µM
[4] = second compound 0.1 µM, first compound 1 µM
[5] = second compound 0.316 µM, first compound 0.0316 µM
[6] = second compound 0.316 µM, first compound 0.1 µM
[7] = second compound 0.316 µM, first compound 0.316 µM
[8] = second compound 0.316 µM, first compound 1 µM
[9] = second compound 1 µM, first compound 0.0316 µM
[10] = second compound 1 µM, first compound 0.1 µM
[11] = second compound 1 µM, first compound 0.316 µM
[12] = second compound 1 µM, first compound 1 µM
[13] = second compound 3.16 µM, first compound 0.0316 µM
[14] = second compound 3.16 µM, first compound 0.1 µM
[15] = second compound 3.16 µM, first compound 0.316 µM
[16] = second compound 3.16 µM, first compound 1 µM
[17] = second compound 10 µM, first compound 0.0316 µM
[18] = second compound 10 µM, first compound 0.1 µM
[19] = second compound 10 µM, first compound 0.316 µM
[20] = second compound 10 µM, first compound 1 µM

In the case of `CC1COCCN1c1cc(-c2ccnn2C)c2ccnc(-c3ccn[nH]3)c2n1` (stereo not given) + CC(CO)NC(=O)c1cc(-c2ccc(Cl)cc2)nn(-c2cnn(C)c2)c1=O, the pIC50 (second compound 0.1 µM) was 7.34, the pIC50 (second compound 0.316 µM) was 7.46 and the pIC50 (second compound 1 µM) was 7.61. The pIC50 (second compound 3.16 µM) was 7.60, the pIC50 (second compound 10 µM) was 7.77 and the viability, T/C (second compound 0.1 µM, first compound 0.00316 µM) was 87.6%. For the same compound, the viability, T/C (second compound 0.1 µM, first compound 0.01 µM) was 77.6%, the viability, T/C [1] was 61.2% and the viability, T/C [2] was 28.6%. The viability, T/C [3] was 20.5%, the viability, T/C [4] was 20.2% and the viability, T/C (second compound 0.316 µM, first compound 0.00316 µM) was 96.4%. It also gave a viability, T/C (second compound 0.316 µM, first compound 0.01 µM) of 73.6%, a viability, T/C [5] of 54.5% and a viability, T/C [6] of 29.7%. It also gave a viability, T/C [7] of 23.8%, a viability, T/C [8] of 18.2% and a viability, T/C (second compound 1 µM, first compound 0.00316 µM) of 90.2%. It also gave a viability, T/C (second compound 1 µM, first compound 0.01 µM) of 72.3%, a viability, T/C [9] of 44.6% and a viability, T/C [10] of 25.3%. The viability, T/C [11] was 22.7%, the viability, T/C [12] was 19.2% and the viability, T/C (second compound 3.16 µM, first compound 0.00316 µM) was 84.3%. For the same compound, the viability, T/C (second compound 3.16 µM, first compound 0.01 µM) was 77.3%, the viability, T/C [13] was 43.1% and the viability, T/C [14] was 24.6%. The viability, T/C [15] was 23.7%, the viability, T/C [16] was 17.8% and the viability, T/C (second compound 10 µM, first compound 0.00316 µM) was 71.2%. It also gave a viability, T/C (second compound 10 µM, first compound 0.01 µM) of 64%, a viability, T/C [17] of 33% and a viability, T/C [18] of 21.6%. For the same compound, the viability, T/C [19] was 22.2% and the viability, T/C [20] was 17.8%.

In the case of `CC1COCCN1c1cc(C2(S(C)(=N)=O)CC2)nc(-c2ccnc3[nH]ccc23)n1` (stereo not given) + CC(CO)NC(=O)c1cc(-c2ccc(Cl)cc2)nn(-c2cnn(C)c2)c1=O, the pIC50 (second compound 0.1 µM) was 5.80, the pIC50 (second compound 0.316 µM) was 5.96 and the pIC50 (second compound 1 µM) was 5.81. For the same compound, the pIC50 (second compound 3.16 µM) was 5.83, the pIC50 (second compound 10 µM) was 6.02 and the viability, T/C [1] was 89.6%. The viability, T/C [2] was 83.2%, the viability, T/C [3] was 96.7% and the viability, T/C [4] was 64.9%. It also gave a viability, T/C (second compound 0.1 µM, first compound 3.16 µM) of 29.7%, a viability, T/C (second compound 0.1 µM, first compound 10 µM) of 21.9% and a viability, T/C [5] of 78.8%. It also gave a viability, T/C [6] of 93.5%, a viability, T/C [7] of 70.1% and a viability, T/C [8] of 51.1%. It also gave a viability, T/C (second compound 0.316 µM, first compound 3.16 µM) of 32.4%, a viability, T/C (second compound 0.316 µM, first compound 10 µM) of 20.4% and a viability, T/C [9] of 77.3%. It also gave a viability, T/C [10] of 88.5%, a viability, T/C [11] of 88.4% and a viability, T/C [12] of 57.1%. It also gave a viability, T/C (second compound 1 µM, first compound 3.16 µM) of 35.5%, a viability, T/C (second compound 1 µM, first compound 10 µM) of 19.6% and a viability, T/C [13] of 95.8%. The viability, T/C [14] was 86.3%, the viability, T/C [15] was 87.8% and the viability, T/C [16] was 58.6%. For the same compound, the viability, T/C (second compound 3.16 µM, first compound 3.16 µM) was 31.7%, the viability, T/C (second compound 3.16 µM, first compound 10 µM) was 17.6% and the viability, T/C [17] was 83.2%. For the same compound, the viability, T/C [18] was 84.9%, the viability, T/C [19] was 67.9% and the viability, T/C [20] was 52.1%. The viability, T/C (second compound 10 µM, first compound 3.16 µM) was 24.8% and the viability, T/C (second compound 10 µM, first compound 10 µM) was 18.8%.
